`O=C(O)COc1ccc(Cl)cc1Cl` gave a solubility (mole fraction) (in 2-butanone, 278.15 K) of 0.0937, a solubility (mole fraction) (in 2-butanone, 283.15 K) of 0.103 and a solubility (mole fraction) (in 2-butanone, 288.15 K) of 0.112. For the same molecule, the solubility (mole fraction) (in 2-butanone, 293.15 K) was 0.123, the solubility (mole fraction) (in 2-butanone, 298.15 K) was 0.134 and the solubility (mole fraction) (in 2-butanone, 303.15 K) was 0.144. For the same molecule, the solubility (mole fraction) (in 2-butanone, 308.15 K) was 0.156, the solubility (mole fraction) (in 2-butanone, 313.15 K) was 0.169 and the solubility (mole fraction) (in 2-butanone, 318.15 K) was 0.184. It also gave a solubility (mole fraction) (in 2-butanone, 323.15 K) of 0.201, a solubility (mole fraction) (in MTBE, 278.15 K) of 0.087 and a solubility (mole fraction) (in MTBE, 283.15 K) of 0.0961. The solubility (mole fraction) (in MTBE, 288.15 K) was 0.106, the solubility (mole fraction) (in MTBE, 293.15 K) was 0.116 and the solubility (mole fraction) (in MTBE, 298.15 K) was 0.126. It also gave a solubility (mole fraction) (in MTBE, 303.15 K) of 0.137, a solubility (mole fraction) (in MTBE, 308.15 K) of 0.148 and a solubility (mole fraction) (in MTBE, 313.15 K) of 0.161. It also gave a solubility (mole fraction) (in MTBE, 318.15 K) of 0.175, a solubility (mole fraction) (in MTBE, 323.15 K) of 0.19 and a solubility (mole fraction) (in acetone, 278.15 K) of 0.107. The solubility (mole fraction) (in acetone, 283.15 K) was 0.116, the solubility (mole fraction) (in acetone, 288.15 K) was 0.127 and the solubility (mole fraction) (in acetone, 293.15 K) was 0.137. It also gave a solubility (mole fraction) (in acetone, 298.15 K) of 0.15, a solubility (mole fraction) (in acetone, 303.15 K) of 0.163 and a solubility (mole fraction) (in acetone, 308.15 K) of 0.176. The solubility (mole fraction) (in acetone, 313.15 K) was 0.191, the solubility (mole fraction) (in acetone, 318.15 K) was 0.205 and the solubility (mole fraction) (in acetone, 323.15 K) was 0.222. For the same molecule, the solubility (mole fraction) (in acetonitrile, 278.15 K) was 0.0178, the solubility (mole fraction) (in acetonitrile, 283.15 K) was 0.0246 and the solubility (mole fraction) (in acetonitrile, 288.15 K) was 0.0306. The solubility (mole fraction) (in acetonitrile, 293.15 K) was 0.0401, the solubility (mole fraction) (in acetonitrile, 298.15 K) was 0.0499 and the solubility (mole fraction) (in acetonitrile, 303.15 K) was 0.0572. For the same molecule, the solubility (mole fraction) (in acetonitrile, 308.15 K) was 0.0672, the solubility (mole fraction) (in acetonitrile, 313.15 K) was 0.078 and the solubility (mole fraction) (in acetonitrile, 318.15 K) was 0.0888. For the same molecule, the solubility (mole fraction) (in acetonitrile, 323.15 K) was 0.103, the solubility (mole fraction) (in ethanol, 278.15 K) was 0.0654 and the solubility (mole fraction) (in ethanol, 283.15 K) was 0.0797. For the same molecule, the solubility (mole fraction) (in ethanol, 288.15 K) was 0.0975, the solubility (mole fraction) (in ethanol, 293.15 K) was 0.117 and the solubility (mole fraction) (in ethanol, 298.15 K) was 0.141. It also gave a solubility (mole fraction) (in ethanol, 303.15 K) of 0.167, a solubility (mole fraction) (in ethanol, 308.15 K) of 0.192 and a solubility (mole fraction) (in ethanol, 313.15 K) of 0.223. For the same molecule, the solubility (mole fraction) (in ethanol, 318.15 K) was 0.255, the solubility (mole fraction) (in ethanol, 323.15 K) was 0.292 and the solubility (mole fraction) (in ethyl acetate, 278.15 K) was 0.0548. It also gave a solubility (mole fraction) (in ethyl acetate, 283.15 K) of 0.0622, a solubility (mole fraction) (in ethyl acetate, 288.15 K) of 0.0703 and a solubility (mole fraction) (in ethyl acetate, 293.15 K) of 0.0798. The solubility (mole fraction) (in ethyl acetate, 298.15 K) was 0.0894, the solubility (mole fraction) (in ethyl acetate, 303.15 K) was 0.101 and the solubility (mole fraction) (in ethyl acetate, 308.15 K) was 0.113. The solubility (mole fraction) (in ethyl acetate, 313.15 K) was 0.126, the solubility (mole fraction) (in ethyl acetate, 318.15 K) was 0.14 and the solubility (mole fraction) (in ethyl acetate, 323.15 K) was 0.155. The solubility (mole fraction) (in isobutanol, 278.15 K) was 0.0317, the solubility (mole fraction) (in isobutanol, 283.15 K) was 0.0402 and the solubility (mole fraction) (in isobutanol, 288.15 K) was 0.0508. It also gave a solubility (mole fraction) (in isobutanol, 293.15 K) of 0.0627, a solubility (mole fraction) (in isobutanol, 298.15 K) of 0.0778 and a solubility (mole fraction) (in isobutanol, 303.15 K) of 0.0933. The solubility (mole fraction) (in isobutanol, 308.15 K) was 0.112, the solubility (mole fraction) (in isobutanol, 313.15 K) was 0.135 and the solubility (mole fraction) (in isobutanol, 318.15 K) was 0.161. The solubility (mole fraction) (in isobutanol, 323.15 K) was 0.19, the solubility (mole fraction) (in isobutyl acetate, 278.15 K) was 0.0365 and the solubility (mole fraction) (in isobutyl acetate, 283.15 K) was 0.0427. For the same molecule, the solubility (mole fraction) (in isobutyl acetate, 288.15 K) was 0.0494, the solubility (mole fraction) (in isobutyl acetate, 293.15 K) was 0.0574 and the solubility (mole fraction) (in isobutyl acetate, 298.15 K) was 0.0657.

From BigSolDB 2.1
